From patent US20110105436A1, “HETEROARYL COMPOUNDS, COMPOSITIONS, AND METHODS OF USE IN CANCER TREATMENT” (AUCKLAND UNISERVICES LIMITED, priority 2008, published 2011)
“Also recorded” adds a separate entry of the source.

Tests used:
LC3 = LC3 processing by Western blot and immunostaining; type: cell-based; conditions: STF-62247 treatment, FIG. 2D, 2E
Protocol: Western blot analysis. After treatments, cells were lysed in urea buffer (9M urea, 75 mM Tris (pH 7.5), 150 mM b-mercaptoethanol), placed on ice for 10 minutes and sonicated briefly (15 seconds). Extracts were centrifugated at 8,000×g for 10 minutes to eliminate insoluble material. Lysates were quantitated using Bio-Rad protein Assay (Bio-Rad Laboratories) and 20-30 μg of proteins were separated on a 7.5% or 15% bis-acrylamide gels and then transferred onto PVDF membranes. Proteins were visualized using HIF-2α (Novus Biological), HIF-1α, pVHL and BiP (BD Biosciences), LC3 (MBL), Atg5, or α-tubulin antibodies.
Immunofluorescence staining. Cells were seeded on glass coverslips and at subconfluence, STF-62247 was added at 1.25 μM for RCC4 and 3.75 μM for SN12C. After 20 hours, cells were fixed in 3.7% formaldehyde for 10 min at room temperature and washed in PBS. Then cells were permeabilized in 0.2% Triton X-100 for 5 min at room temperature and washed in PBS. The coverslips were incubated with primary antibody LC3 diluted 1:500 in PBS containing 0.2% BSA for 1 hour at room temperature. Cells were washed three times in PBS-BSA and the bound primary antibody was detected using a fluorescein-conjugated secondary antibody (ALEXA) diluted 1:500 in PBS-BSA and incubated for 1 hour. Coverslips were washed and mounted in mounting medium from Vector Laboratories according to the manufacturer's instructions. Cells were examined with a confocal microscope
A. Phase contrast pictures of VHL-deficient RCC4 and SN12C-VHL shRNA cells and VHL-positive cells RCC4 and SN12C after 20 hrs of 1.25 μM STF-62247. B. Immunostaining for LC3 following STF-62247 treatment at 1.25 μM for 20 hrs with or without 2 mM of 3-MA in RCC4 with and without VHL cells. After treatment, cells were fixed, permeabilized and processed for the detection of punctuate staining by indirect immunofluorescence. C. Autophagic vacuoles stained with monodansylcadaverine (MDC). After STF-62247 treatment in the same conditions, MDC was added for the last 10 minutes. Cells were fixed, washed with PBS and observed directly under microscope. D. Western blot for LC3 in RCC4, RCC4/VHL, SN12C, and SN12C-VHL shRNA cells after STF-62247 treatment with or without 3-MA. Nutrient starvation (EBSS) is used as positive control. E. Western blot for LC3 in RCC4 and RCC4/VHL with different concentrations of STF-62247. Tubulin was used as loading control. F. Cell viability assay in VHL-deficient RCC4 and wild-type VHL cells treated with 1 mM of 3-MA, 1.25 μM of STF-62247 alone or in combination for 24 hrs. Viability is measured by trypan blue exclusion assay and is represented by the average of three different experiments in duplicate as the percent of treated on untreated cells. The error bars are represented as SEM.
A. VHL-deficient RCC4 and wild-type VHL were incubated in presence of 10 μM LY294002, or 1 μg/mlBrefeldin A with 1.25 μM of STF-62247 for 20 hrs and the presence of vacuoles was examined under light microscopy. B,C. LC3 processing was evaluated by Western blot after the treatment with Brefeldin A or LY294002 in presence or absence of STF-62247 as described above. Tubulin was used as loading control. D. Cells were treated with 1.25 μM of STF-62247 with or without 2 mM of 3-MA, 1 μg/ml of Brefeldin A for 20 hrs. For the last 15 min, acidic components were stained with 1 μg/ml of acridine orange and visualized under fluorescence microscope. […] F. Quantification of the FACS analysis. The data are calculated as the average of three different experiments as relative units of treated over untreated cells. The error bars are represented as the standard error of the mean (SEM).
B,C. LC3 processing was evaluated by Western blot after the treatment with U0126 or tunicamycin in presence or absence of STF-62247 as described above. Tubulin was used as loading control.

RCC4 and RCC4/VHL cells = experiment: DNA damage: comet assay and p53 immunoblot; type: cell-based
Protocol: B. XTT assay in RCC4 and RCC4/VHL in presence of STF-62247 (0-40 μM). Each point of the cell survival is calculated by the average of three different experiments in duplicate as the percent of treated on untreated plate. The error bars are represented as the standard error of the mean (SEM) C. qRT-PCR for Glutl, VEGF, PDF and PGK in RCC4 cells with or without HIF-1a, HIF-2a shRNA and in RCC4/VHL. D. Hoescht staining in RCC4 and RCC4/VHL cells with 1.25 μM of STF-62247 for 2 days. Camptothecin was used as positive control E. FACS analysis for apoptosis after an annexin V-FITC staining in presence or absence of propidium iodine (PI) in cells after a treatment in same conditions than in C. F. Immunoblot for active caspase-3 in RCC4 and RCC4/VHL following treatment with 1.25 μM of STF-62247 for 24 hours. Staurosporine was used as positive control (0.2 μM for 24 hours). G,H. Immunostaining of caspase-3 and Ki67 respectively in SN12C and SN12C+shVHL tumor samples untreated or treated with 30 μM of STF-62247.1. Immunoblot for p53 and SerlS phospho-p53 in RCC4 and RCC4/VHL cells after a treatment with 1.25 μM of STF-62247 or doxorubicin for 24 hours.

Cc1cccc(Nc2nc(-c3ccncc3)cs2)c1 [Compound 5, N-(3-Methylphenyl)-4-(4-pyridinyl)-1,3-thiazol-2-amine]
LC3-II (lipidated form) (LC3): induced by STF-62247 treatment; also recorded: increases in a concentration-dependent manner | phosphorylation of p53 on serine 15 and total p53 levels (RCC4 and RCC4/VHL cells; 1.25 μM, 24 hours, FIG. 7I): unaffected | DNA damage by comet assay (RCC4 and RCC4/VHL cells; data not shown): did not induce DNA damage
